These results are taken from ChEMBL document CHEMBL4321843, “Discovery of small-molecule candidates against inflammatory bowel disease” (Eur J Med Chem, 2020).

Format in all cases: functional
Assay [1] deals with Mus musculus. Kind of assay: Anti-colitis activity in C57BL/6 (B6) mouse model of DSS-induced colitis assessed as disease activity index at 100 mg/kg, ig pretreated for 3 days followed by DSS treatment for 7 days (reference value: 5.67 +/- 1.03).
Assay [2] relates to Rattus norvegicus. In words: Anti-colitis activity in Sprague-Dawley rat model of acetic acid-induced colitis assessed as colon mucosa damage index at 50 mg/kg, po administered for 7 consecutive days and measured on day 8 (reference value: 3.3 +/- 0.6).
For assay [3], the system named is Rattus norvegicus. Kind of assay: Anti-colitis activity in Sprague-Dawley rat model of acetic acid-induced colitis assessed as disease activity index at 50 mg/kg, po administered for 7 consecutive days and measured on day 8 (reference value: 3.9 +/- 0.4).
The subject of assay [4] is Rattus norvegicus. Kind of assay: Anti-colitis activity in Sprague-Dawley rat model of acetic acid-induced colitis assessed as histological scores at 50 mg/kg, po administered for 7 consecutive days and measured on day 8 (reference value: 9.3 +/- 2.8).
Assay [5] relates to Rattus norvegicus. In words: Antiinflammatory activity in Sprague-Dawley rat model of acetic acid-induced colitis assessed as reduction in IFNgamma level in serum at 50 mg/kg, po administered for 7 consecutive days and measured on day 8 by ELISA method. (An ELISA detects its analyte on a solid surface through an enzyme-linked reagent.)
For assay [6], the system named is Mus musculus. In words: Anti-colitis activity in ICR mouse model of DSS-induced colitis assessed as inhibition of DSS-induced colorectum shortening at 6 mg, po for 14 days relative to control.
Assay [7] relates to Mus musculus. Kind of assay: Anti-colitis activity in ICR mouse model of DSS-induced colitis assessed as reduction in DSS-induced body weight loss at 6 mg, po for 14 days relative to control. Further details: scale not given: the % may be the effect or the level left.

In the case of `O=C(O)[C@H]1O[C@@H](Oc2cc3oc(-c4ccccc4)cc(=O)c3c(O)c2O)[C@H](O)[C@@H](O)[C@@H]1O` [BAICALIN], the Activity_index in assay [1] came to 3.33.
Take `O=C(O[C@@H]1Cc2c(O)cc(O)cc2O[C@@H]1c1cc(O)c(O)c(O)c1)c1cc(O)c(O)c(O)c1` [EPIGALOCATECHIN GALLATE]: the Activity_index was 1.5 in assay [2] and 1.1 in assay [3]. For the same compound, the Activity was determined as 4.6 in assay [4] and 33.3 pg/mL in assay [5].
As to `O=c1c(O)c(-c2ccc(O)c(O)c2)oc2cc(O)cc(O)c12` [QUERCETIN], the “inhibition (INH)” value in assay [6] turned out to be 18%. For the same compound, the Activity in assay [7] turned out to be 21%.
For `C[C@@H]1O[C@@H](OC[C@H]2O[C@@H](Oc3c(-c4ccc(O)c(O)c4)oc4cc(O)cc(O)c4c3=O)[C@H](O)[C@@H](O)[C@@H]2O)[C@H](O)[C@H](O)[C@H]1O` [RUTIN] the same measures were 73% and 54%.
